Organism: Rattus norvegicus
Assay: Open TG-GATES - Regimen: Single
Assay type: toxicity, organism-based, Sprague-Dawley
Design: regimen Single, gender Male, age 6 weeks
Conditions: in vivo, po, 0 mg/kg, route gavage, dose level Control; for APTT / Bas / Eos / Fbg / Hb / Ht / Lym / MCH / MCHC / MCV / Mono / Neu / PT / Plat / RBC / Ret / WBC: tissue Blood; for KIDNEY_L / KIDNEY_R / KIDNEY_TOTAL: tissue Kidney; for LIVER: tissue Liver; for A/G / ALP / ALT / AST / BUN / CRE / Ca / Cl / DBIL / GLC / IP / K / LDH / Na / PL / RALB / TBIL / TC / TG / TP / gamma-GTP: tissue Plasma

CCc1cc(C(N)=S)ccn1 [ETHIONAMIDE]
TERMINAL_BW (3 h): 229.3 g | APTT (3 h): 16.6 s | Bas (3 h): 0% | Eos (3 h): 1% | Fbg (3 h): 213.4 mg/dL | Hb (3 h): 14 g/dL | Ht (3 h): 41.5% | Lym (3 h): 80.2% | MCH (3 h): 22.1 pg | MCHC (3 h): 33.8% | MCV (3 h): 65.5 fL | Mono (3 h): 7.2% | Neu (3 h): 11.6% | PT (3 h): 11.7 s | Plat (3 h): 118.5 x10_4/uL | RBC (3 h): 635.2 x10_4/ul | Ret (3 h): 7.7% | WBC (3 h): 98.2 x10_2/uL | KIDNEY_L (3 h): 1 g | KIDNEY_R (3 h): 1.1 g | KIDNEY_TOTAL (3 h): 2.1 g | LIVER (3 h): 11.4 g | A/G (3 h): 1.8 | ALP (3 h): 831 IU/L | ALT (3 h): 31.8 IU/L | AST (3 h): 64.6 IU/L | BUN (3 h): 13.6 mg/dL | CRE (3 h): 0.6 mg/dL | Ca (3 h): 10.9 mg/dL | Cl (3 h): 104.8 meq/L | DBIL (3 h): 0.006 mg/dL | GLC (3 h): 192.4 mg/dL | IP (3 h): 8.2 mg/dL | K (3 h): 4.6 meq/L | LDH (3 h): 72.6 IU/L | Na (3 h): 141 meq/L | PL (3 h): 152.2 mg/dL | RALB (3 h): 3.5 g/dL | TBIL (3 h): 0.3 mg/dL | TC (3 h): 82 mg/dL | TG (3 h): 86.2 mg/dL | TP (3 h): 5.4 g/dL | gamma-GTP (3 h): 1 IU/L | TERMINAL_BW (6 h): 223.7 g | APTT (6 h): 18.2 s | Bas (6 h): 0% | Eos (6 h): 1% | Fbg (6 h): 221.6 mg/dL | Hb (6 h): 14.1 g/dL | Ht (6 h): 41.9% | Lym (6 h): 80.6% | MCH (6 h): 21.8 pg | MCHC (6 h): 33.5% | MCV (6 h): 65.2 fL | Mono (6 h): 7.6% | Neu (6 h): 11.2% | PT (6 h): 12.1 s | Plat (6 h): 124.1 x10_4/uL | RBC (6 h): 644 x10_4/ul | Ret (6 h): 7.8% | WBC (6 h): 114.3 x10_2/uL | KIDNEY_L (6 h): 1 g | KIDNEY_R (6 h): 1 g | KIDNEY_TOTAL (6 h): 2 g | LIVER (6 h): 10.5 g | A/G (6 h): 1.6 | ALP (6 h): 729.4 IU/L | ALT (6 h): 29.6 IU/L | AST (6 h): 63.6 IU/L | BUN (6 h): 12 mg/dL | CRE (6 h): 0.5 mg/dL | Ca (6 h): 11 mg/dL | Cl (6 h): 104 meq/L | DBIL (6 h): 0 mg/dL | GLC (6 h): 187.6 mg/dL | IP (6 h): 9.4 mg/dL | K (6 h): 5 meq/L | LDH (6 h): 87.8 IU/L | Na (6 h): 139 meq/L | PL (6 h): 150 mg/dL | RALB (6 h): 3.3 g/dL | TBIL (6 h): 0.4 mg/dL | TC (6 h): 82.4 mg/dL | TG (6 h): 86.6 mg/dL | TP (6 h): 5.4 g/dL | gamma-GTP (6 h): 1.2 IU/L | TERMINAL_BW (9 h): 223.4 g | APTT (9 h): 17.3 s | Bas (9 h): 0% | Eos (9 h): 1% | Fbg (9 h): 213.8 mg/dL | Hb (9 h): 13.9 g/dL | Ht (9 h): 41% | Lym (9 h): 71% | MCH (9 h): 21.8 pg | MCHC (9 h): 33.9% | MCV (9 h): 64.3 fL | Mono (9 h): 7% | Neu (9 h): 21.4% | PT (9 h): 12.1 s | Plat (9 h): 115.1 x10_4/uL | RBC (9 h): 639.6 x10_4/ul | Ret (9 h): 7.9% | WBC (9 h): 97.9 x10_2/uL | KIDNEY_L (9 h): 1.1 g | KIDNEY_R (9 h): 1 g | KIDNEY_TOTAL (9 h): 2.1 g | LIVER (9 h): 9.8 g | A/G (9 h): 1.9 | ALP (9 h): 759.2 IU/L | ALT (9 h): 31.2 IU/L | AST (9 h): 59.2 IU/L | BUN (9 h): 13.2 mg/dL | CRE (9 h): 0.5 mg/dL | Ca (9 h): 10.4 mg/dL | Cl (9 h): 107 meq/L | DBIL (9 h): 0.024 mg/dL | GLC (9 h): 194.8 mg/dL | IP (9 h): 10.2 mg/dL | K (9 h): 4.7 meq/L | LDH (9 h): 66.6 IU/L | Na (9 h): 143.4 meq/L | PL (9 h): 126.8 mg/dL | RALB (9 h): 3.6 g/dL | TBIL (9 h): 0.4 mg/dL | TC (9 h): 65.8 mg/dL | TG (9 h): 47.8 mg/dL | TP (9 h): 5.4 g/dL | gamma-GTP (9 h): 1.2 IU/L | TERMINAL_BW (24 h): 237.2 g | APTT (24 h): 16.3 s | Bas (24 h): 0% | Eos (24 h): 1.2% | Fbg (24 h): 214.4 mg/dL | Hb (24 h): 13.9 g/dL | Ht (24 h): 41.1% | Lym (24 h): 75.6% | MCH (24 h): 21.8 pg | MCHC (24 h): 33.7% | MCV (24 h): 64.7 fL | Mono (24 h): 7.6% | Neu (24 h): 15.6% | PT (24 h): 11.7 s | Plat (24 h): 117.8 x10_4/uL | RBC (24 h): 635.6 x10_4/ul | Ret (24 h): 7.8% | WBC (24 h): 117.6 x10_2/uL | KIDNEY_L (24 h): 1 g | KIDNEY_R (24 h): 1 g | KIDNEY_TOTAL (24 h): 2.1 g | LIVER (24 h): 11.8 g | A/G (24 h): 1.9 | ALP (24 h): 856.4 IU/L | ALT (24 h): 40.8 IU/L | AST (24 h): 70.6 IU/L | BUN (24 h): 20 mg/dL | CRE (24 h): 0.6 mg/dL | Ca (24 h): 11 mg/dL | Cl (24 h): 104.4 meq/L | DBIL (24 h): 0.016 mg/dL | GLC (24 h): 200.2 mg/dL | IP (24 h): 8.1 mg/dL | K (24 h): 4.7 meq/L | LDH (24 h): 77.8 IU/L | Na (24 h): 141.2 meq/L | PL (24 h): 151.8 mg/dL | RALB (24 h): 3.6 g/dL | TBIL (24 h): 0.3 mg/dL | TC (24 h): 79.8 mg/dL | TG (24 h): 90.6 mg/dL | TP (24 h): 5.5 g/dL | gamma-GTP (24 h): 1.6 IU/L
